One data set deals with T1, E. coli GroEL/ES (Escherichia coli, UniProt P0A6F5).
T1 construct: made in house; host or cells: GroEL in E. coli DH5α; GroES in E. coli BL21 (DE3)
Nature of the data set: GroEL/ES-mediated dRho refolding assay. It is filed as biochemical. To be noted: for log(IC50) GroEL/ES-dRho Refolding: log of IC50 (μM scale), with standard deviation. The method, then:
Reagent preparation: For this assay, five primary reagent stocks were prepared: 1) GroEUES-dRho binary complex stock; 2) ATP initiation stock; 3) thiocyanate enzymatic assay stock; 4) formaldehyde quench stock; 5) ferric nitrate reporter stock. Denatured rhodanese (dRho) was prepared by 3-fold dilution of rhodanese (Roche product #R1756, diluted to 10 mg/mL with H2O) with denaturant buffer (12 M Urea, 50 mM Tris-HCl, pH 7.4, and 10 mM DTT). Rhodanese was completely denatured by incubating at room temperature for 45 min. The binary complex solution was prepared by slowly adding the dRho stock to a stirring stock of concentrated GroEL in modified folding buffer (50 mM Tris-HCl, pH 7.4, 50 mM KCl, 10 mM MgCl2, 5 mM Na2S2O3, and 1 mM DTT). The solution was centrifuged at 16,000×g for 5 minutes, and the supernatant was collected and added to a solution of GroES in modified folding buffer to give final protein concentrations of 100 nM GroEL, 120 nM GroES, and 80 nM dRho. The binary complex stock was prepared immediately prior to use. For the ATP initiation stock, ATP solid was diluted into modified folding buffer to a final concentration of 2.0 mM. The thiocyanate enzymatic assay stock was prepared to contain 70 mM KH2PO4, 80 mM KCN, and 80 mM Na2S2O3 in water. The formaldehyde quench solution contained 30% formaldehyde in water. The ferric nitrate reporter stock contained 8.5% w/v Fe(NO3)3 and 11.3% v/v HNO3 in water.
Assay Protocol: First, 10 μL aliquots of the GroEL/ES-dRho complex stock were dispensed into clear, 384-well polystyrene plates. […] The chaperonin-mediated refolding cycle was initiated by addition of 10 μL of ATP stock (reagent concentrations during refolding cycle: 50 nM GroEL, 60 nM GroES, 40 nM dRho, 1 mM ATP, and compounds of 250 μM to 114 nM, 3-fold dilution series). After incubating for 45 minutes at 37° C. for the refolding cycle, 30 μL of the thiocyanate enzymatic assay stock was added and incubated for 60 min at R.T. for the refolded rhodenase enzymatic reporter reaction. The reporter reaction was quenched by adding 10 μL of the formaldehyde quench stock, and then 40 μL of the ferric nitrate reporter stock was added to quantify the amount of thiocyanate produced during the enzymatic reporter reaction, which is proportional to the amount of dRho refolded by GroEL/ES. After incubating at R.T. for 15 min, the absorbance by Fe(SCN)3 was measured at 460 nm using a Molecular Devices SpectraMax Plus384 microplate reader. A second set of baseline control plates were prepared analogously, but without GroEL/ES-dRho protein binary solution, to correct for possible interference from compound absorbance or turbidity. […] Results presented represent the averages of IC50 values obtained from at least quadriplicate (duplicate of duplicate) replicates.
After generating the compound library, we next employed a series of well-established biochemical assays to evaluate compound inhibitory effects against the GroEUES chaperonin system (See FIG. 6 and FIG. 7). We used E. coli GroEUES as the surrogate chaperonin system for refolding of the reporter enzymes malate dehydrogenase (MDH) and rhodanese (Rho). Briefly, binary complexes are formed between GroEL and denatured MDH or Rho, which are then refolded to their native states upon addition of ATP and the GroES co-chaperonin. Enzymatic activities of refolded native MDH or Rho act as coupled reporters of GroEUES refolding functions since in the presence of chaperonin inhibitors, no functional reporter enzymes are generated.

For the next data set, the target named is T2, native Rho (rhodanese) (Bos taurus, UniProt P00586).
T2 construct: purchased Roche (so in the source) R1756
T2 sequence (P00586 1-297): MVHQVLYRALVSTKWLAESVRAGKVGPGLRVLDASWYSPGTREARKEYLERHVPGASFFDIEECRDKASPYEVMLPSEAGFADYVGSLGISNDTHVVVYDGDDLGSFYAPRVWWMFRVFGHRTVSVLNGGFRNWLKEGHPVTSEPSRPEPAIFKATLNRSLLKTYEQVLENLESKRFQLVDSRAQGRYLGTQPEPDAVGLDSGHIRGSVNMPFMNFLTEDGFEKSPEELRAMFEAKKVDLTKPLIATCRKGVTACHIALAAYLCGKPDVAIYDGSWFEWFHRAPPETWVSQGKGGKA
The data set is described as follows: Counter-screen for inhibition of native rhodanese enzymatic activity. It is filed as biochemical. To be noted: for log(IC50) Native Rho Reporter: log of IC50 (μM scale), with standard deviation. The method, then:
Reagent Preparations & Assay Protocol: Reagents were identical to those used in the GroEUES-dRho refolding assay described above; however, the assay protocol differed in the sequence of compound addition to the wells. Compounds were pin-transferred after the 60 minute incubation for the refolding cycle, but prior to the addition of the thiocyanate enzymatic assay stock. Thus, the refolding reactions were allowed to proceed for 60 min at 37° C. in the absence of test compounds, but the enzymatic activity of the refolded rhodanese reporter enzyme was monitored in the presence of test compounds (inhibitor concentration range during the enzymatic reporter reaction is 100 µM to 46 nM-3-fold dilutions). IC50 values for the rhodenase reporter enzyme were determined as described above. Results presented represent the averages of IC50 values obtained from at least quadriplicate (duplicate of duplicate) replicates.
Background: A counterscreen serves to expose hits that act by an unwanted route or on another target.

The test system of a further data set is THLE-3 liver cells. The data set is described as follows: Liver cell viability assay (Alamar Blue). The following applies: read-out: Human Cell Viability CC50, Liver (THLE-3); THLE-3 liver cells, Alamar Blue, 48 h. How it is done: (§1) HEK 293 cells were maintained in MEM medium (Corning Cellgro, 10-009 CV) supplemented with 10% FBS (Sigma, F2242). […] Cells at 80% confluence were harvested and diluted in growth medium, then 45 μL of the THLE-3 cells (1,500 cells/well) or HEK 293 cells (1,500 cells/well) were dispensed per well, and plates were sealed with “Breathe Easy” oxygen permeable membranes (Diversified Biotech) and incubated at 37° C., 5% CO2, for 24 h.

Data set [1] can be described thus: Kidney cell viability assay (Alamar Blue). The following applies: human. How it is done:
as §1
A general note: The colour change of resazurin is a common sign of viable cells or microbes.

The next data set concerns HEK 293 kidney cells. Nature of the data set: Kidney cell viability assay (Alamar Blue). To be noted: read-out: Human Cell Viability CC50, Kidney (HEK 293); HEK 293 kidney cells, Alamar Blue, 48 h. How it is done:
as §1

[2] abbreviates: read-out: Biochemical Assay IC50 GroEL/ES-dRho Refolding.
Setting [3] is: read-out: Biochemical Assay IC50 Native Rho Reporter.

Read-outs that look alike come from different tables or passages of the source.

T1 sequence (P0A6F5 2-548): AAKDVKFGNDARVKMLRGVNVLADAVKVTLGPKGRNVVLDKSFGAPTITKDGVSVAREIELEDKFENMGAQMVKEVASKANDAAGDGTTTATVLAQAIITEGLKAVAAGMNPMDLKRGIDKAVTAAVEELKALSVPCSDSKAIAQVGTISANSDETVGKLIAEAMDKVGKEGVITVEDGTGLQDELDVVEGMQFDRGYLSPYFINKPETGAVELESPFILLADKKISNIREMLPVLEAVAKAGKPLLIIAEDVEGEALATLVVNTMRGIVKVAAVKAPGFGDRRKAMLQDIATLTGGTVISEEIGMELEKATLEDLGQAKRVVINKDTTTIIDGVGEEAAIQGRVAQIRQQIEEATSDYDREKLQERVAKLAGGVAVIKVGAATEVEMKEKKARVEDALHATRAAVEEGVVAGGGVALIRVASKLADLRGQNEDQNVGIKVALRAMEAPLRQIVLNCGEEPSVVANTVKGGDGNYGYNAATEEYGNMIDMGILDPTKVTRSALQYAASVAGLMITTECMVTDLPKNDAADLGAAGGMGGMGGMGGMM

Take `O=C(Nc1cccc(Cl)c1)c1cc(Br)cc(Br)c1O` [Compound 9, 3,5-Dibromo-N-(3-chlorophenyl)-2-hydroxybenzamide]: the “log(IC50) GroEL/ES-dRho Refolding” value on E. coli GroEL/ES is reported as 1.67 ± 0.04. Also, the IC50 at E. coli GroEL/ES (setting [2]) is 47 µM; on native Rho (rhodanese) (setting [3]), above 100 µM. At native Rho (rhodanese), the “log(IC50) Native Rho Reporter” value is on record as above 2. Also, the CC50 came to 9.2 µM in the data set on THLE-3 liver cells and 18 µM in the data set with HEK 293 kidney cells. In data set [1], this compound showed a CC50 at 48 h of 18.2 µM.

In the case of `CN[C@H](CC(C)C)C(=O)N[C@H]1C(=O)N[C@@H](CC(N)=O)C(=O)N[C@H]2C(=O)N[C@H]3C(=O)N[C@H](C(=O)N[C@H](C(=O)O)c4cc(O)cc(O)c4-c4cc3ccc4O)[C@H](O)c3ccc(c(Cl)c3)Oc3cc2cc(c3O[C@@H]2O[C@H](CO)[C@@H](O)[C@H](O)[C@H]2O[C@H]2C[C@](C)(N)[C@H](O)[C@H](C)O2)Oc2ccc(cc2Cl)[C@H]1O` [Vancomycin, vancomycin, reference compound], at E. coli GroEL/ES, the IC50 was above 100 µM and the “log(IC50) GroEL/ES-dRho Refolding” value is above 2. At native Rho (rhodanese), the IC50 is above 100 µM and the “log(IC50) Native Rho Reporter” value is recorded as above 2. The CC50 in the data set with THLE-3 liver cells was above 100 µM. Besides, the CC50 at 48 h in data set [1] is above 100 µM. Further, the CC50 with HEK 293 kidney cells is above 100 µM.

With `Cc1cc(C(C#N)c2ccc(Cl)cc2)c(Cl)cc1NC(=O)c1cc(I)cc(I)c1O` (centres unmarked) [Closantel, closantel, reference compound], the IC50 against E. coli GroEL/ES is 1.55 µM; at E. coli GroEL/ES (setting [2]), 1.5 µM; at native Rho (rhodanese) (setting [3]), above 100 µM. Besides, the “log(IC50) Native Rho Reporter” value on native Rho (rhodanese) is above 2. The CC50 at 48 h in data set [1] (HEK 293 kidney cells) was 75.9 µM. Also, in the data set on HEK 293 kidney cells, the CC50 came to 75 µM.

Take `O=C(Nc1ccc(Oc2ccc(Cl)cc2)c(Cl)c1)c1cc(I)cc(I)c1O` [Rafoxanide, rafoxanide, reference compound]: at E. coli GroEL/ES, the “log(IC50) GroEL/ES-dRho Refolding” value was found to be 0.34 ± 0.11. The results for the IC50 on E. coli GroEL/ES (setting [2]) and on native Rho (rhodanese) were 2.2 µM and above 100 µM, respectively. Moreover, the “log(IC50) Native Rho Reporter” value at native Rho (rhodanese) is listed as above 2. Besides, the CC50 in the data set on THLE-3 liver cells is 24 µM; with HEK 293 kidney cells it was above 100 µM. Moreover, the CC50 at 48 h in data set [1] is above 100 µM.

As for `O=C(Nc1ccccc1)c1cc(Br)cc(Br)c1O` [Compound 13, 3,5-Dibromo-2-hydroxy-N-phenylbenzamide], the IC50 against E. coli GroEL/ES and at native Rho (rhodanese) (setting [3]) was above 100 µM each time. For the same compound, the “log(IC50) GroEL/ES-dRho Refolding” value on E. coli GroEL/ES is on record as above 2. The “log(IC50) Native Rho Reporter” value on native Rho (rhodanese) is above 2. For the same compound, the values for the CC50 in the data set on THLE-3 liver cells and in the data set on HEK 293 kidney cells were 25 µM and 34 µM, respectively. For the same compound, the CC50 at 48 h in data set [1] is 33.9 µM.

Turning to `CC1(C)S[C@@H]2[C@H](NC(=O)[C@H](N)c3ccccc3)C(=O)N2[C@H]1C(=O)O` [Ampicillin, ampicillin, reference compound], on E. coli GroEL/ES, the “log(IC50) GroEL/ES-dRho Refolding” value is listed as above 2. Further, the IC50 on E. coli GroEL/ES (setting [2]) and at native Rho (rhodanese) (setting [3]) was above 100 µM in each case. Further, the “log(IC50) Native Rho Reporter” value at native Rho (rhodanese) was above 2. The CC50 in the data set with THLE-3 liver cells and in the data set on HEK 293 kidney cells was above 100 µM throughout. The same compound displayed a CC50 at 48 h in data set [1] (HEK 293 kidney cells) above 100 µM.

Consider `COc1ccc(Br)cc1C(=O)Nc1ccc(Sc2nc3ccccc3s2)cc1` [Compound 35, N-(4-(Benzo[d]thiazol-2-ylthio)phenyl)-5-bromo-2-methoxybenzamide], for which the IC50 against E. coli GroEL/ES and at native Rho (rhodanese) (setting [3]) was above 100 µM each time. This compound also came in with a CC50 at 48 h in data set [1] above 100 µM.

Consider `O=C(Nc1ccccc1)c1ccccc1O` [Compound 16, 2-Hydroxy-N-phenylbenzamide], for which the “log(IC50) GroEL/ES-dRho Refolding” value at E. coli GroEL/ES is above 2. The IC50 on E. coli GroEL/ES (setting [2]) and against native Rho (rhodanese) was above 100 µM throughout. Besides, the “log(IC50) Native Rho Reporter” value at native Rho (rhodanese) was above 2. Moreover, the figures for the CC50 with THLE-3 liver cells and in the data set with HEK 293 kidney cells were 68 µM and above 100 µM, respectively. In data set [1], this compound returned a CC50 at 48 h above 100 µM.

For the compound `COc1ccc(Br)cc1C(=O)Nc1ccccc1` [Compound 43, 5-Bromo-2-methoxy-N-phenylbenzamide], on E. coli GroEL/ES, the IC50 is above 100 µM and the “log(IC50) GroEL/ES-dRho Refolding” value is listed as above 2. Further, the “log(IC50) Native Rho Reporter” value on native Rho (rhodanese) is listed as above 2. Moreover, on native Rho (rhodanese) (setting [3]), the IC50 is above 100 µM. For the same compound, the CC50 at 48 h in data set [1] is above 100 µM.

These data come from patent publication US20210395210A1, “INHIBITION OF BACTERIAL CHAPERONIN SYSTEMS” (THE TRUSTEES OF INDIANA UNIVERSITY, priority 2018, published 2021).
